The text below walks through data of PubChem BioAssay AID1963986 (Molecular Pharmacology Branch, DTP, NCI, 2024).

Molecules are shown by their SMILES.

The test system of this assay is 171881-019-R-J1-PDC tumor spheroid viability. In words: Anticancer human tumor 171881-019-R-J1-PDC patient-derived invasive breast carcinoma cell line growth inhibition [PI3K]. Conditions: spheroids with HUVEC and MSC; for viability, T/C: stronger effect = lower value. Summed up: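 Viability of mixed-cell spheroids was determined after exposure to pairwise combinations, one partner being inavolisib, alpelisib, duvelisib or copanlisib. Highest tested concentration matched clinical Cmax where known and 10 microM where not, descending in half-log steps.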
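Also: spheroids exposed to compound for 7 days before viability read.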
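For viability, T/C in this document: 100% = DMSO vehicle-treated spheroids.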

As to `CC1(C)CCC(Nc2ncc(C(F)(F)F)c(-c3c[nH]c4c(P(C)(C)=O)c(C#N)ccc34)n2)CN1` (configuration not stated), the viability, T/C is, setting by setting: (compound 0.0316 µM) 72.4% [middle of 4 runs]; (compound 0.1 µM) 70.7% [middle of 4 runs]; (compound 0.316 µM) 78.8% [middle of 4 runs]; (compound 1 µM) 82.7% [middle of 4 runs]; (compound 3.16 µM) 86.8% [middle of 4 runs]; (compound 10 µM) 24% [middle of 4 runs]. For the same compound, the concentration for half-maximal inhibition (IC50) (curve of compound) was 5.87 µM [middle of 4 runs].
